Where “and” joins values, the source holds several entries; their conditions need not be identical. Equal entries are not always repeated.
Assays:
SLC1A1 (EAAT3) = target: T1, SLC1A1 (EAAT3) (Homo sapiens, UniProt P43005); assay: TEVC in oocytes expressing glutamate transporter; assay type: cell-based; conditions: EAAT3 (SLC1A1); 10 µM L-glu current, TEVC; read-out: IC50, block of glutamate current
T1 construct: expressed in transfected cells; host or cells: Xenopus laevis oocytes (cRNA injection)
T1 sequence (P43005 1-524): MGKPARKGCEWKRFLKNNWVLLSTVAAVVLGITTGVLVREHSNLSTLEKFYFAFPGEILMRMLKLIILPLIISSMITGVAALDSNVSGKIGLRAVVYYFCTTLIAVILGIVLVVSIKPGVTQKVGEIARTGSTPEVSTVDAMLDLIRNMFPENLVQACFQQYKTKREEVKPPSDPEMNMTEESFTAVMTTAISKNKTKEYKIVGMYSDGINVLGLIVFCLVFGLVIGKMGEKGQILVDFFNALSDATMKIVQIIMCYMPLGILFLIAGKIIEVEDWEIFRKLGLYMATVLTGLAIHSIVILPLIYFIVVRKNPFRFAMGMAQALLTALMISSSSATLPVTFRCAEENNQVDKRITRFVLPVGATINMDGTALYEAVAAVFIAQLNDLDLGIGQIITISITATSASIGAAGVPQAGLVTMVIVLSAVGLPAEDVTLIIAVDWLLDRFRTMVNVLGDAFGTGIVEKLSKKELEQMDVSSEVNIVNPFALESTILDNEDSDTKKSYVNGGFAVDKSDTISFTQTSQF
Protocol: (§1) Additionally, 4-HP applied at 1 mM was used to assess activity at the glutamate transporters SLC1A3 or SLC1A1.
(§2) BPOHP activity was evaluated against the glutamate transporters paralogs within the SLC1A gene family (SLC1A 1–3) as well as at neutral amino acid transporters that share common ligand substrates with the SLC1 family including SLC38A1,2, and 4 (ATA1, ATA2, ATA3) and heteromeric transporters SLC7A10+SLC3A2 (asc-1/4f2).
(§3) Uptake was halted by washing 3 times with 4 °C ND96 buffer. Oocytes were then lysed in 0.1% Triton X-100, and radioactivity was counted via liquid scintillation. Dose response curves were generated by fitting fractional inhibition (I) to the expression I = Imax × [inhibitor]/([inhibitor] + IC50).
(§4) Two-electrode voltage clamp (TEVC) transporter currents were recorded with a GeneClamp 500 amplifier and Digidata 1320A analog–digital interface (Molecular Devices, San Jose, CA, USA). Electrodes (0.2–1.0 MΩ) were filled with 3M KCl and the recording chamber was grounded with an agar bridge. Data were acquired with Axograph (v1.7.6) and LabChart (v7) and analyzed with Kaleidagraph software (v4.1) (Synergy, Reading, PA, USA). Uncoupled anion currents associated with the transport of substrate and block of SLC1A4 or SLC1A5 mediated leak conductance were recorded in the presence of Ringer with 50% substitution of NaCl by NaSCN to amplify the non-transported anion conductance.
(§5) Figure SM-2 TEVC from oocytes expressing SLC1A1-3 transporters.
(§6) (1 picture or pasted object on this page, not shown here)

SLC1A3 (EAAT1) = target: T2, SLC1A3 (EAAT1) (Homo sapiens, UniProt P43003); assay: TEVC in oocytes expressing glutamate transporter; assay type: cell-based; conditions: EAAT1 (SLC1A3); 10 µM L-glu current, TEVC; read-out: IC50, block of glutamate current
T2 construct: expressed in transfected cells; host or cells: Xenopus laevis oocytes (cRNA injection)
T2 sequence (P43003 whole entry): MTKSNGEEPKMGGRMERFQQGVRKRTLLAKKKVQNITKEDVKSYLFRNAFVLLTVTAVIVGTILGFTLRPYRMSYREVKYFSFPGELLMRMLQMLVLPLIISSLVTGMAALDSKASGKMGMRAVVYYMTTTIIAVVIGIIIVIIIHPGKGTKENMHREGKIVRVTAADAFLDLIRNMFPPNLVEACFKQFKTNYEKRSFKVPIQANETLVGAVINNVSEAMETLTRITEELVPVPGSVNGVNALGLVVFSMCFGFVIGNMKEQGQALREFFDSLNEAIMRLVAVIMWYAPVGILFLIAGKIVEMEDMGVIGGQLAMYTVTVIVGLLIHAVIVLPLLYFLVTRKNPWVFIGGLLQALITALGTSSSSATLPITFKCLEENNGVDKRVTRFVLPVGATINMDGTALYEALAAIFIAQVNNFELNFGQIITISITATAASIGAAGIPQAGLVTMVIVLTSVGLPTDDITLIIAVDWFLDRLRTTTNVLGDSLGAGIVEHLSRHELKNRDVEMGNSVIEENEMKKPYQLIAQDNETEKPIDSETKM
Protocol: as §1, §2, §3, §4, §5, §6

SLC1A4 = target: T3, SLC1A4 (Homo sapiens, UniProt P43007); assay: [3H]D-serine uptake in oocytes; assay type: cell-based; conditions: [3H]D-serine 100 nM, 10 µM BPOHP
T3 construct: expressed in transfected cells; host or cells: Xenopus laevis oocytes (cRNA injection)
T3 sequence (P43007 1-532): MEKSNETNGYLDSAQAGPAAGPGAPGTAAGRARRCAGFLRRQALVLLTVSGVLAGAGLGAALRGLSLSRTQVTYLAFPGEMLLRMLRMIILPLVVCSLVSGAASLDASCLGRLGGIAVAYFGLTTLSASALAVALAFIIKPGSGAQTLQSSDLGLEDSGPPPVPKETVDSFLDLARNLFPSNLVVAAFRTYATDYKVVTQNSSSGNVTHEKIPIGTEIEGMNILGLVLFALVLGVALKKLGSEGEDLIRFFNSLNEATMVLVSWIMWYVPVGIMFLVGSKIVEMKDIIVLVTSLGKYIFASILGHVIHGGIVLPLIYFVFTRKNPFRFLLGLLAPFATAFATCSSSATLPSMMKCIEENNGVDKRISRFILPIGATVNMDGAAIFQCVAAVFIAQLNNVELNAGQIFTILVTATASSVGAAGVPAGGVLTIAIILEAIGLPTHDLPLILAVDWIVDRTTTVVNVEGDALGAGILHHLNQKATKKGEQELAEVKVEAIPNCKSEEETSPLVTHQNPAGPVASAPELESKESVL
Protocol: page 6: vi Figure SM-3A. […] with no effect on SL[…] neutral amino acid transporters SLC38A1(ATA1), SLC38A2 (ATA2), and SLC38A4 (ATA3). SM-3B. […] by application of 10μM BPOHP. Figure SM-4. Tosic acid approach to compound 12c. (i) Tosylic acid 0.1M in THF 60◦C. (ii) […] S.Figure 3 A. […] SLC38A1(ATA1), SLC38A2 (ATA2), and SLC38A4 (ATA3). B. […] SLC7A10+SLC3A2 (asc1+4F2). […]

[1] = system: glutamate transporters (SLC1A 1–3); assay: Inhibition of the glutamate transporters, general statement; assay type: cell-based, human
Protocol: as §2, with “(asc-1/4f2). […] Finally, radiolabeled [^3H]D-serine uptake was used to assess the electroneutral SLC7A10+SLC3A2 transporter, in which 10 µM BPOHP had no effect (Figure S3).” for “(asc-1/4f2).”
High resolution structural models for SLC1A4 and SLC1A5 have been developed. These models reinforce our SLC1A5 homology model derived from the archaeal glutamate transporter. […] While preparing this manuscript, inhibitors of SLC1A5 of a similar design to our alkoxy-hydroxyprolines were reported with ligand-bound high-resolution EM models. These reported EM models help validate our docking solutions with respect to mode of binding within our homology model. We emphasize that our discoveries and modeling of these hydroxyproline/AHPC inhibitors targeting SLC1A4 and SLC1A5, as documented in the public domain [66, 67], predates these reports and is yet to be properly referenced/cited. […] This nonselective SLC1 inhibition, observed with BPOHP, may be attributed to entropic contributions resulting from the biphenyl moiety occupying an adjacent hydrophobic pocket.

`O=C(O)[C@H]1NC[C@@H](OCc2ccc(-c3ccccc3)cc2)[C@@H]1O` [14e] was tested, and the IC50 (SLC1A1 (EAAT3)) was 19.5 µM and 25.3 µM, the IC50 (SLC1A3 (EAAT1)) was 1.75 µM and 2.45 µM and the “effect on [3H]D-serine uptake” value (SLC1A4) was “blocked”. The “inhibition of the glutamate transporters” value [1] was “low micromolar range”.

— PMC11123841, “Discovery and Synthesis of Hydroxy-L-Proline Blockers of the Neutral Amino Acid Transporters SLC1A4 (ASCT1) and SLC1A5 (ASCT2)” (Molecules, 2024)
